Where two headings read alike, the source gives them in different places.
Tests used:
CCD-18Co cells = assay: XTT cytotoxicity/proliferation assay on CCD-18Co fibroblasts; assay type: cell-based, human; details: 24 h incubation, XTT test
Method: The cell line CCD-18Co (fibroblasts from the colon of a healthy human) was obtained from the American Type Cells Collections (Cat. No. ATCC-CRL-1459). The cells were cultured in Minimum Essential Medium Eagle (MEM) with Earle’s salts, L-glutamine, sodium bicarbonate, and phenol red, supplemented with 10% fetal bovine serum (FBS), 1% non-essential amino acids (NEAAs), and 1% penicillin/streptomycin solution (P/S), all purchased from Sigma-Aldrich (St. Louis, MO, USA). The incubation parameters were 37 ℃, 5% CO2, and 95% relative humidity. The cytotoxicity of the tested complexes (Ag-IBU, Ag-IBU-CAF, Cu-IBU, and Cu-IBU-CAF) was derived using two distinct parameters: (1) tetrazolium salt (XTT) reduction by mitochondrial succinate dehydrogenases using an XTT (Tetrazolium hydroxide) Kit; and (2) neutral red (NR) dye uptake and incorporation within lysosomes using an NR (Neutral Red) Kit. Both kits were produced by Xenometrix AG, Allschwil, Switzerland. The assays were carried out without any substantial changes to the test procedures provided by the manufacturer. The stock solutions of the tested compounds at 20 mg mL^−1 were prepared in DMSO. […] The cells were incubated for the next 3 h, gently mixed, and the absorbance was read at 480 nm with a reference wavelength of 690 nm using the multi-mode plate reader FLUOstar Omega (BMG Labtech, Ortenberg, Germany). […]

ovine COX-1 = biological target: T1, ovine COX-1 (Ovis aries, UniProt P05979); assay: COX (ovine/human) Inhibitor Screening Assay, COX-1; assay type: biochemical
T1 construct: purchased Cayman Chemicals
T1 sequence (P05979 25-600): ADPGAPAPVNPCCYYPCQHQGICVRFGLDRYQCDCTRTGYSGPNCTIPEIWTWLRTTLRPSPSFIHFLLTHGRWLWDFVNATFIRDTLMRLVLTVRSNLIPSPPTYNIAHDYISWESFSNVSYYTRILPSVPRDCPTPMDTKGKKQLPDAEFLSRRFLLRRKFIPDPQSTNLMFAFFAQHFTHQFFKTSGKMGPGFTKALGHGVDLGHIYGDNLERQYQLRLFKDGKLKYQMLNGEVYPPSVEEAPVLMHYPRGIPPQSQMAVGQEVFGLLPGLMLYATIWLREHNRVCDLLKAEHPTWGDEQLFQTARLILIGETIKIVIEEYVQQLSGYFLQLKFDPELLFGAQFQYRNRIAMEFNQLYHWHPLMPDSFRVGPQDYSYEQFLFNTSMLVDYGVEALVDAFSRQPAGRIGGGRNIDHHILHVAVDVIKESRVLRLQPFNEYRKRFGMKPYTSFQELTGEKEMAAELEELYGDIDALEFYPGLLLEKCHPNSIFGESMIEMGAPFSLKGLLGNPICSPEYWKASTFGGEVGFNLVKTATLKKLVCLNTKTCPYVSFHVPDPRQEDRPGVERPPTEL
Method: The ability of the obtained complexes to inhibit cyclooxygenase activity was measured using a COX (ovine/human) Inhibitor Screening Assay Kit (Cayman Chemicals, MI, USA) with ovine COX-1 and human recombinant COX-2. The amount of prostaglandin, dependent on the COX activity, after exposure to the tested complexes was calculated from the standard curve. […] The selectivity indices (SIs) were calculated according to the formula COX-1 IC50/COX-2 IC50.

[1] = test system: all tested bacterial strains; assay: MIC by broth microdilution, all tested bacterial strains; assay type: cell-based
Method: (§1) The bacterial strains Bacillus subtilis ATCC 6637, Bacteroides fragilis ATCC 25285, Clostridium bifermentans ATCC 638, Escherichia coli ATCC 35218, Enterococcus faecalis ATCC 29212, Pseudomonas aeruginosa ATCC 27853, Staphylococcus aureus ATCC 6538, Staphylococcus aureus ATCC 25923, Staphylococcus aureus ATCC 29213, Staphylococcus aureus ATCC 43300, and Staphylococcus epidermidis ATCC 12228 were cultured in Mueller–Hinton medium (Oxoid, Basingstoke, UK) at 37 °C for 24 h.
(§2) The minimal inhibitory concentration (MIC) was determined by the broth microdilution method according to the standards of the Clinical and Laboratory Standards Institute (CLSI) manuals in 96-well plates. All stock solutions of the investigated complexes were prepared in DMSO with concentrations of 2 mg mL^−1.
(§3) The MIC was estimated as the lowest concentration of the complex inhibiting bacterial growth. As negative controls, samples without inoculum at each complex concentration were used, whereas the positive control contained the inoculum but not the investigated complexes. Each complex was tested at concentrations between 2.5 and 160 µg mL^−1. The first well contained the highest concentration, and further concentrations were achieved by serial dilution. The assay was performed in duplicate with three repetitions for each bacterial strain.

[2] = test system: Bacillus subtilis ATCC 6637; assay: MIC by broth microdilution; assay type: cell-based
Method: as §1, §2, §3

[3] = test system: Bacteroides fragilis ATCC 25285; assay: MIC by broth microdilution; assay type: cell-based
Method: as §1, §2, §3

[4] = test system: Enterococcus faecalis ATCC 29212; assay: MIC by broth microdilution; assay type: cell-based
Method: as §1, §2, §3

[5] = test system: Escherichia coli ATCC 25218; assay: MIC by broth microdilution; assay type: cell-based
Method: as §1, §2, §3

[6] = test system: Pseudomonas aeruginosa ATCC 27853; assay: MIC by broth microdilution; assay type: cell-based
Method: as §1, §2, §3

[7] = test system: Staphylococcus aureus ATCC 25923; assay: MIC by broth microdilution; assay type: cell-based
Method: as §1, §2, §3

[8] = test system: Staphylococcus aureus ATCC 29213; assay: MIC by broth microdilution; assay type: cell-based
Method: as §1, §2, §3

[9] = test system: Staphylococcus aureus ATCC 43300; assay: MIC by broth microdilution; assay type: cell-based
Method: as §1, §2, §3

[10] = test system: Staphylococcus aureus ATCC 6538; assay: MIC by broth microdilution; assay type: cell-based
Method: as §1, §2, §3

[11] = test system: Staphylococcus epidermidis ATCC 12228; assay: MIC by broth microdilution; assay type: cell-based
Method: as §1, §2, §3

[12] = test system: Bacillus subtilis ATCC 6637; assay: Disc diffusion test (Kirby–Bauer); assay type: cell-based; details: concentration according to MIC, 6 mm filter discs
Method: as §1
(§4) The antimicrobial sensibility assay was performed according to the Kirby–Bauer method using 6 mm filter discs. Mueller–Hinton agar (Oxoid) was poured onto Petri dishes (90 mm), and saturated filter discs at the concentration determined as the MIC were placed onto the agar surface after distributing bacteria on the agar. The Petri dishes were incubated at 37 °C for 24 h.

[13] = test system: Bacteroides fragilis ATCC 25285; assay: Disc diffusion test (Kirby–Bauer); assay type: cell-based; details: concentration according to MIC, 6 mm filter discs
Method: as §1, §4

[14] = test system: Enterococcus faecalis ATCC 29212; assay: Disc diffusion test (Kirby–Bauer); assay type: cell-based; details: concentration according to MIC, 6 mm filter discs
Method: as §1, §4

[15] = test system: Escherichia coli ATCC 25218; assay: Disc diffusion test (Kirby–Bauer); assay type: cell-based; details: concentration according to MIC, 6 mm filter discs
Method: as §1, §4

[16] = test system: Pseudomonas aeruginosa ATCC 27853; assay: Disc diffusion test (Kirby–Bauer); assay type: cell-based; details: concentration according to MIC, 6 mm filter discs
Method: as §1, §4

[17] = test system: Staphylococcus aureus ATCC 25923; assay: Disc diffusion test (Kirby–Bauer); assay type: cell-based; details: concentration according to MIC, 6 mm filter discs
Method: as §1, §4

[18] = test system: Staphylococcus aureus ATCC 29213; assay: Disc diffusion test (Kirby–Bauer); assay type: cell-based; details: concentration according to MIC, 6 mm filter discs
Method: as §1, §4

[19] = test system: Staphylococcus aureus ATCC 43300; assay: Disc diffusion test (Kirby–Bauer); assay type: cell-based; details: concentration according to MIC, 6 mm filter discs
Method: as §1, §4

[20] = test system: Staphylococcus aureus ATCC 6538; assay: Disc diffusion test (Kirby–Bauer); assay type: cell-based; details: concentration according to MIC, 6 mm filter discs
Method: as §1, §4

[21] = test system: Staphylococcus epidermidis ATCC 12228; assay: Disc diffusion test (Kirby–Bauer); assay type: cell-based; details: concentration according to MIC, 6 mm filter discs
Method: as §1, §4

| IC50 COX-1 (ovine COX-1) [µg/mL] | MIC ([1]; 2.5–160 µg mL^−1) [µg/mL] | MIC [2] [µg/mL] | MIC [3] [µg/mL] | MIC [4] [µg/mL] | MIC [5] [µg/mL] | MIC [6] [µg/mL] | MIC [7] [µg/mL] | MIC [8] [µg/mL] | MIC [9] [µg/mL] | MIC [10] [µg/mL] | MIC [11] [µg/mL] | SMILES | 24h-IC50 (CCD-18Co cells) [µg/mL] | Inhibition Halo [12] [mm] | Inhibition Halo [13] [mm] | Inhibition Halo [14] [mm] | Inhibition Halo [15] [mm] | Inhibition Halo [16] [mm] | Inhibition Halo [17] [mm] | Inhibition Halo [18] [mm] | also measured |
| --- | --- | --- | --- | --- | --- | --- | --- | --- | --- | --- | --- | --- | --- | --- | --- | --- | --- | --- | --- | --- | --- |
| 64.6 | ≤ 20 | 10 | 20 | 10 | 10 | 10 | 10 | 5 | 20 | 10 | 20 | CC(C)Cc1ccc(C(C)C(=O)[O][Ag])cc1 (centres unmarked) [Ag-IBU] | 25.10 | 11 | 7 | 14 | 9 | 10 | 14 | 7 | Inhibition Halo [19]: 13 mm; Inhibition Halo [20]: 14 mm; Inhibition Halo [21]: 10 mm |
| 62.5 | ≤ 20 | 10 | 20 | 5 | 5 | 10 | 5 | 5 | 10 | 5 | 10 | CC(C)Cc1ccc(C(C)C(=O)[O][Ag])cc1.Cn1c(=O)c2c(ncn2C)n(C)c1=O (centres unmarked) [Ag-IBU-CAF] | 33.35 | 13 | 10 | 16 | 17 | 15 | 16 | 12 | Inhibition Halo [19]: 15 mm; Inhibition Halo [20]: 15 mm; Inhibition Halo [21]: 11 mm |
| – | – | – | – | – | – | – | – | – | – | – | – | CC(C)Cc1ccc(C(C)C(=O)O)cc1 (racemic) [IBU, (RS)-2-(4-(2-methylpropyl)phenyl)propanoic acid, reference compound] | – | – | – | – | – | – | – | – | MIC ([1]; 2.5–160 µg mL^−1, read-out: MIC): > 200 µg/mL |
